Molecules are shown by their SMILES. pEC50: −log10 of the molar value.

The subject of this experiment is ER-alpha MCF7. Description: ER-alpha MCF7 HCS EC50; stated as measured by in vitro cell proliferation assays of Examples 902 and 903. It counts as cell-based. Conditions: Homo sapiens, MCF7, MCF7 cells; Table 2. Put shortly:
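MCF7 cells seeded 1000-2000 cells/well for 16 h, then treated with nine-point 1:2 DMSO dilution series in quadruplicate at 37 °C, 5% CO2 for 4 days. Viable cells quantified by CellTiter-Glo ATP luminescence; EC50 calculated. Controls: fulvestrant at final 100 nM, DMSO 0.2% v/v.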
In general, pEC50 refers to the EC50 on a negative log10 scale, so that one unit is a factor of ten. On to `CC(C)(F)CN1[C@@H](CO)Cc2c([nH]c3ccccc23)[C@@H]1c1c(F)cc(OCCN2CC(CF)C2)cc1F` [Example 131, ((1S,3R)-1-(2,6-difluoro-4-(2-(3-(fluoromethyl)azetidin-1-yl)ethoxy)phenyl)-2-(2-fluoro-2-methylpropyl)-2,3,4,9-tetrahydro-1H-pyrido[3,4-b]indol-3-yl)methanol], for which the pEC50 was 9.84. On to `C[C@@H]1Cc2c([nH]c3ccccc23)[C@@H](c2ccc(C(=O)C3CN(CCCF)C3)cc2)N1CC(C)(C)F` [Example 346, [4-[(1R,3R)-2-(2-fluoro-2-methyl-propyl)-3-methyl-1,3,4,9-tetrahydropyrido[3,4-b]indol-1-yl]phenyl]-[1-(3-fluoropropyl)azetidin-3-yl]methanone], for which the pEC50 was 9.40. Regarding `C[C@@H]1Cc2c([nH]c3ccccc23)[C@@H](c2c(F)cc(OCCN3CC(CF)C3)cc2F)N1CC1CC1` [Example 186, (1R,3R)-2-(cyclopropylmethyl)-1-[2,6-difluoro-4-[2-[3-(fluoromethyl)azetidin-1-yl]ethoxy]phenyl]-3-methyl-1,3,4,9-tetrahydropyrido[3,4-b]indole], the pEC50 is 8.70.

In the case of `C[C@@H]1Cc2c([nH]c3ccccc23)[C@@H](c2c(F)cc(OCCN3CC(CF)C3)cc2F)N1C(=O)C1COC1` [Example 213, [(1R,3R)-1-[2,6-difluoro-4-[2-[3-(fluoromethyl)azetidin-1-yl]ethoxy]phenyl]-3-methyl-1,3,4,9-tetrahydropyrido[3,4-b]indol-2-yl]-(oxetan-3-yl)methanone], the pEC50 is 8.40. For `C[C@@H]1Cc2c([nH]c3ccccc23)[C@@H](c2ccc(NC3CN(CCCF)C3)cc2F)N1C[C@@](C)(F)CO` [Example 290, (R)-2-fluoro-3-((1R,3R)-1-(2-fluoro-4-((1-(3-fluoropropyl)azetidin-3-yl)amino)phenyl)-3-methyl-1,3,4,9-tetrahydro-2H-pyrido[3,4-b]indol-2-yl)-2-methylpropan-1-ol], the pEC50 was 9.30. Turning to `C[C@H]1Cc2c([nH]c3ccc(F)cc23)[C@H](c2c(F)cc(NC3CN(CCCF)C3)cc2F)N1CC(F)(F)F` [Example 373, N-(3,5-difluoro-4-((1S,3S)-6-fluoro-3-methyl-2-(2,2,2-trifluoroethyl)-2,3,4,9-tetrahydro-1H-pyrido[3,4-b]indol-1-yl)phenyl)-1-(3-fluoropropyl)azetidin-3-amine], the pEC50 was 7.74. `C[C@@H]1Cc2c([nH]c3ccccc23)[C@@H](c2c(F)cc(OCCN3CC(CF)C3)cc2F)N1CC1CCCCC1` [Example 207, (1R,3R)-2-(cyclohexylmethyl)-1-[2,6-difluoro-4-[2-[3-(fluoromethyl)azetidin-1-yl]ethoxy]phenyl]-3-methyl-1,3,4,9-tetrahydropyrido[3,4-b]indole]: the pEC50 is 7.89. Regarding `C[C@@H]1Cc2c([nH]c3ccccc23)[C@@H](c2c(F)cc(OC3CN(CC4CC(F)(F)C4)C3)cc2F)N1CC(C)(C)F` [Example 259, (1R,3R)-1-[4-[1-[(3,3-difluorocyclobutyl)methyl]azetidin-3-yl]oxy-2,6-difluoro-phenyl]-2-(2-fluoro-2-methyl-propyl)-3-methyl-1,3,4,9-tetrahydropyrido[3,4-b]indole], the negative logarithm of the EC50 (pEC50) is 9.35. With `CC(C)(F)CN1[C@@H](c2c(F)cc(OCCN3CC(CF)C3)cc2F)c2[nH]c3ccccc3c2CC1(C)C` [Example 258, (S)-1-(2,6-difluoro-4-(2-(3-(fluoromethyl)azetidin-1-yl)ethoxy)phenyl)-2-(2-fluoro-2-methylpropyl)-3,3-dimethyl-2,3,4,9-tetrahydro-1H-pyrido[3,4-b]indole] the figure was 7.51; with `C[C@@H]1Cc2c([nH]c3ccccc23)[C@@H](c2c(F)cc(OCCN3CC(CF)C3)cc2F)N1C(=O)C1CCCCC1` [Example 137, cyclohexyl((1R,3R)-1-(2,6-difluoro-4-(2-(3-(fluoromethyl)azetidin-1-yl)ethoxy)phenyl)-3-methyl-3,4-dihydro-1H-pyrido[3,4-b]indol-2(9H)-yl)methanone], 7.55; with `C[C@H]1CCN(CCOc2cc(F)c([C@@H]3c4[nH]c5ccccc5c4C[C@@H](C)N3CC(C)(C)F)c(F)c2)C1` [Example 150, (1R,3R)-1-[2,6-difluoro-4-[2-[(3S)-3-methylpyrrolidin-1-yl]ethoxy]phenyl]-2-(2-fluoro-2-methyl-propyl)-3-methyl-1,3,4,9-tetrahydropyrido[3,4-b]indole], 9.32. On to `C[C@@H]1Cc2c([nH]c3ccccc23)[C@H](c2ccc(OCCN3CC(CF)C3)cc2F)N1S(C)(=O)=O` [Example 231, (1S,3R)-1-[2-fluoro-4-[2-[3-(fluoromethyl)azetidin-1-yl]ethoxy]phenyl]-3-methyl-2-methylsulfonyl-1,3,4,9-tetrahydropyrido[3,4-b]indole], for which the pEC50 was 7.62. With `CC(=O)CN1[C@@H](c2c(F)cc(OC3CN(CCCF)C3)cc2F)c2[nH]c3ccccc3c2C[C@H]1C` [Example 295, 1-((1S,3R)-1-(2,6-difluoro-4-((1-(3-fluoropropyl)azetidin-3-yl)oxy)phenyl)-3-methyl-1,3,4,9-tetrahydro-2H-pyrido[3,4-b]indol-2-yl)propan-2-one], the pEC50 is 7.68.

As to `C[C@@H]1Cc2c([nH]c3ccccc23)[C@@H](c2ccc(OCCN3CC(CF)C3)cc2F)N1C[C@](C)(F)CO` [Example 274, (S)-2-fluoro-3-((1R,3R)-1-(2-fluoro-4-(2-(3-(fluoromethyl)azetidin-1-yl)ethoxy)phenyl)-3-methyl-1,3,4,9-tetrahydro-2H-pyrido[3,4-b]indol-2-yl)-2-methylpropan-1-ol], the pEC50 was 9.60. Turning to `C[C@@H]1Cc2c([nH]c3ccccc23)[C@@H](c2c(F)cc(OCCN3CC(CF)C3)cc2F)N1C[C@@](C)(F)CO` [Example 155, (2R)-3-[(1R,3R)-1-[2,6-difluoro-4-[2-[3-(fluoromethyl)azetidin-1-yl]ethoxy]phenyl]-3-methyl-1,3,4,9-tetrahydropyrido[3,4-b]indol-2-yl]-2-fluoro-2-methyl-propan-1-ol], the pEC50 is 10.10. Regarding `CCS(=O)(=O)N1[C@H](c2c(F)cc(OC3CN(CCCF)C3)cc2F)c2[nH]c3ccccc3c2C[C@H]1C` [Example 285, (1R,3R)-1-[2,6-difluoro-4-[1-(3-fluoropropyl)azetidin-3-yl]oxy-phenyl]-2-ethylsulfonyl-3-methyl-1,3,4,9-tetrahydropyrido[3,4-b]indole], the pEC50 is 8.70. Regarding `C[C@H]1Cc2c([nH]c3ccc(Cl)cc23)[C@H](c2c(F)cc(OC3CN(CCCF)C3)cc2F)N1CC(C)(C)F` [Example 244, (1S,3S)-6-chloro-1-(2,6-difluoro-4-((1-(3-fluoropropyl)azetidin-3-yl)oxy)phenyl)-2-(2-fluoro-2-methylpropyl)-3-methyl-2,3,4,9-tetrahydro-1H-pyrido[3,4-b]indole], the pEC50 was 7.20. For `C[C@@H]1Cc2c([nH]c3ccccc23)[C@H](c2c(F)cc(NC3CN(CCCF)C3)cc2F)N1S(C)(=O)=O` [Example 315, N-[3,5-difluoro-4-[(1S,3R)-3-methyl-2-methylsulfonyl-1,3,4,9-tetrahydropyrido[3,4-b]indol-1-yl]phenyl]-1-(3-fluoropropyl)azetidin-3-amine], the pEC50 was 8.70. With `C[C@@H]1Cc2c([nH]c3ccccc23)[C@@H](c2c(F)cc(OCCN3CC(CF)C3)cc2F)N1CC1(CO)CC1` [Example 243, (1-(((1R,3R)-1-(2,6-difluoro-4-(2-(3-(fluoromethyl)azetidin-1-yl)ethoxy)phenyl)-3-methyl-1,3,4,9-tetrahydro-2H-pyrido[3,4-b]indol-2-yl)methyl)cyclopropyl) methanol] the figure was 8.70; with `C[C@@H]1Cc2c([nH]c3ccccc23)[C@@H](c2cnc(OC3CN(CCCF)C3)cn2)N1CC(C)(C)F` [Example 342, (1S,3R)-2-(2-fluoro-2-methylpropyl)-1-(5-((1-(3-fluoropropyl)azetidin-3-yl)oxy)pyrazin-2-yl)-3-methyl-2,3,4,9-tetrahydro-1H-pyrido[3,4-b]indole], 9.21. Regarding `C[C@@H]1Cc2c([nH]c3ccccc23)[C@@H](c2c(F)cc(OCCN3CC(CF)C3)cc2F)N1C(=O)[C@@H](C)CF` [Example 215, (R)-1-((1R,3R)-1-(2,6-difluoro-4-(2-(3-(fluoromethyl)azetidin-1-yl)ethoxy)phenyl)-3-methyl-1,3,4,9-tetrahydro-2H-pyrido[3,4-b]indol-2-yl)-3-fluoro-2-methylpropan-1-one], the pEC50 was 9.47. Take `CC(CN1[C@H](c2c(F)cc(OC3CN(CCCF)C3)cc2F)c2[nH]c3ccccc3c2C[C@H]1C)C(=O)O` (stereo in doubt) [Example 350, 3-[1-[2,6-difluoro-4-[1-(3-fluoropropyl)azetidin-3-yl]oxy-phenyl]-3-methyl-1,3,4,9-tetrahydropyrido[3,4-b]indol-2-yl]-2-methyl-propanoic acid]: the pEC50 is 7.85. For the compound `CC(C)CCN1CC(Oc2cc(F)c([C@@H]3c4[nH]c5ccccc5c4C[C@@H](C)N3CC(C)(C)F)c(F)c2)C1` [Example 190, (1R,3R)-1-[2,6-difluoro-4-(1-isopentylazetidin-3-yl)oxy-phenyl]-2-(2-fluoro-2-methyl-propyl)-3-methyl-1,3,4,9-tetrahydropyrido[3,4-b]indole], the pEC50 is 8.70. Turning to `CC(CN1[C@H](c2c(F)cc(OC3CN(CCCF)C3)cc2F)c2[nH]c3ccccc3c2C[C@H]1C)S(C)(=O)=O` (stereo partly drawn) [Example 309, (1R,3R)-1-(2,6-difluoro-4-((1-(3-fluoropropyl)azetidin-3-yl)oxy)phenyl)-3-methyl-2-(2-(methylsulfonyl)propyl)-2,3,4,9-tetrahydro-1H-pyrido[3,4-b]indole], the pEC50 is 8.22. In the case of `C[C@@H]1Cc2c([nH]c3ccccc23)[C@@H](c2ccc(NC3CN(CCCF)C3)cc2)N1C[C@@](C)(F)CO` [Example 292, (R)-2-fluoro-3-((1R,3R)-1-(4-((1-(3-fluoropropyl)azetidin-3-yl)amino)phenyl)-3-methyl-1,3,4,9-tetrahydro-2H-pyrido[3,4-b]indol-2-yl)-2-methylpropan-1-ol], the pEC50 was 8.70.
